Change in vivo and melting point data for eight compounds are collected here from patent US10392348B2, “2-oxo-3,4-dihydroquinoline compounds as plant growth regulators” (Syngenta Participations AG, priority 2015, dated 2019).

Read-outs that look alike come from different tables or passages of the source.

Series [1] concerns soybean plants (variety S20-G7). Briefly: Reduced plant water use in soybean (foliar spray, repeated weighing of pots). Format: in vivo. The settings on record: Glycine max, foliar, Table B1, sprayed at 500 μM, vs negative control. The procedure, abridged: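 Compounds in blank EC formulation diluted in water with EXTRAVON 1 g/20 L, foliar-sprayed on 12-day-old soybean in growth chambers. Water use from repeated pot weighing at a.m./p.m. periods over 0-2 DAA, summed to cumulative 0-2.5 DAA; ANCOVA with pre-application baseline covariate, relative to blank-formulation control.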

Series [2] relates to corn plants (variety NK OCTET). Briefly: Reduced plant water use in corn (foliar spray, repeated weighing of pots). The settings on record: Zea mays, corn plants sprayed at 500 μM, average of 6 pots. Format: in vivo. A digest of the protocol:
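Twelve-day-old corn plants sprayed on foliage with EC formulations diluted in water with 0.4% rape seed methyl ester. Day-time water use tracked by repeated pot weighing through 2.5 DAA, summed cumulatively; analysed by covariance with water use 1 day before application as baseline.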

The mark [3] stands for this setting: 0 h, 0 DAA a.m. (10:30-12:50), read-out: % WU 0 DAA AM.
Where [4] appears, read: 24 h, 1 DAA a.m. (7:30-12:50), read-out: % WU 1DAA AM.
[5] abbreviates: 24 h, 1 DAA p.m. (14:00-19:50), read-out: % WU 1DAA PM.
The mark [6] stands for this setting: 48 h, 2 DAA a.m. (07:30-12:50), read-out: % WU 2 DAA AM.
Where [7] appears, read: 48 h, 2 DAA p.m. (14:00-19:50), read-out: % WU 2 DAA PM.
[8] abbreviates: 60 h, cumulative total WU (0-2.5 DAA), read-out: % WU Total 0 to 2.5 DAA.
[9] abbreviates: 0 h, water use during day time vs negative control, 0 DAA a.m. (10:30-12:50), read-out: % WU 0 DAA AM.
Where [10] appears, read: 0 h, water use during day time vs negative control, 0 DAA p.m. (14:00-19:50), read-out: % WU 0DAA PM.
Setting [11] is: 24 h, water use during day time vs negative control, 1 DAA a.m. (07:30-12:50), read-out: % WU 1DAA AM.
Setting [12] is: 24 h, water use during day time vs negative control, 1 DAA p.m. (14:00-19:50), read-out: % WU 1DAA PM.
Setting [13] is: 48 h, water use during day time vs negative control, 2 DAA a.m. (07:30-12:50), read-out: % WU 2 DAA AM.
The mark [14] stands for this setting: 48 h, water use during day time vs negative control, 2 DAA p.m. (14:00-19:50), read-out: % WU 2 DAA PM.
[15] abbreviates: 60 h, cumulative total water use 0-2.5 DAA (sum of the time points) vs negative control, read-out: % WU Total 0 to 2.5 DAA.

By melting point is commonly meant the temperature, or range, at which the solid turns liquid.

`CCN1C(=O)CCc2cc(CNS(=O)(=O)c3ccc(Br)cc3)ccc21` [Compound 2.002, 4-bromo-N-[(1-ethyl-2-oxo-3,4-dihydroquinolin-6-yl)methyl]benzenesulfonamide]: the melting point is 176 to 183 °C. The change in vivo at 500 µM in series [1] (setting [3]) is -10.4%. The change in vivo at 500 µM in series [1] (setting [4]) was -6.5%. Moreover, the change in vivo at 500 µM in series [1] (setting [5]) was -4%. Further, the change in vivo at 500 µM in series [1] (setting [6]) was -5.6%. Further, the change in vivo at 500 µM in series [1] (setting [7]) is -4.2%. The change in vivo at 500 µM in series [1] (setting [8]) was -5.8%. The change in vivo at 500 µM in series [2] (setting [9]) is -10.8%. Further, the change in vivo at 500 µM in series [2] (setting [10]) was -3.6%. In addition, the change in vivo at 500 µM in series [2] (setting [11]) was -3.2%. Besides, the change in vivo at 500 µM in series [2] (setting [12]) is -3.9%. Further, in series [2] (setting [13]), the change in vivo at 500 µM was -1.2%. Also, the change in vivo at 500 µM in series [2] (setting [14]) was -1.7%. The change in vivo at 500 µM in series [2] (setting [15]) is -3.2%.

As for `CCN1C(=O)CCc2cc(CNS(=O)(=O)c3ccc(F)cc3F)ccc21` [Compound 2.006, N-[(1-ethyl-2-oxo-3,4-dihydroquinolin-6-yl)methyl]-2,4-difluoro-benzenesulfonamide], the melting point lay within 167 to 168 °C. For the same compound, in series [1] (setting [3]), the change in vivo at 500 µM is -23.4%. In addition, the change in vivo at 500 µM in series [1] (setting [4]) was -13.8%. In addition, the change in vivo at 500 µM in series [1] (setting [5]) is -13%. Besides, in series [1] (setting [6]), the change in vivo at 500 µM is -10.4%. Further, the change in vivo at 500 µM in series [1] (setting [7]) was -7.3%. In addition, the change in vivo at 500 µM in series [1] (setting [8]) was -13.2%. Moreover, the change in vivo at 500 µM in series [2] (setting [9]) was -12.5%. Moreover, the change in vivo at 500 µM in series [2] (setting [10]) is -6.7%. For the same compound, the change in vivo at 500 µM in series [2] (setting [11]) is -6.5%. In addition, in series [2] (setting [12]), the change in vivo at 500 µM was -5.5%. The change in vivo at 500 µM in series [2] (setting [13]) was -3%. For the same compound, the change in vivo at 500 µM in series [2] (setting [14]) is -3.2%. For the same compound, the change in vivo at 500 µM in series [2] (setting [15]) is -5.4%.

Consider `CCN1C(=O)CCc2cc(CNS(=O)(=O)c3ccc(C)s3)ccc21` [Compound 2.061, N-[(1-ethyl-2-oxo-3,4-dihydroquinolin-6-yl)methyl]-5-methyl-thiophene-2-sulfonamide], for which the melting point was 149 to 152 °C. For the same compound, the change in vivo at 500 µM in series [1] (setting [3]) is -50.4%. Besides, the change in vivo at 500 µM in series [1] (setting [4]) is -7.9%. Besides, in series [1] (setting [5]), the change in vivo at 500 µM was -2.2%. Further, the change in vivo at 500 µM in series [1] (setting [6]) is -0.5%. The change in vivo at 500 µM in series [1] (setting [7]) is -1.2%. In series [1] (setting [8]), the change in vivo at 500 µM is -13.7%. Also, in series [2] (setting [9]), the change in vivo at 500 µM was -18.8%. Moreover, the change in vivo at 500 µM in series [2] (setting [10]) was -10.8%. For the same compound, in series [2] (setting [11]), the change in vivo at 500 µM is -7.5%. Besides, in series [2] (setting [12]), the change in vivo at 500 µM was -2.8%. For the same compound, in series [2] (setting [13]), the change in vivo at 500 µM is -1.6%. The change in vivo at 500 µM in series [2] (setting [14]) was -0.8%. For the same compound, the change in vivo at 500 µM in series [2] (setting [15]) is -6.2%.

Regarding `CCN1C(=O)CCc2cc(CNS(=O)(=O)c3ccsc3)ccc21` [Compound 2.068, N-[(1-ethyl-2-oxo-3,4-dihydroquinolin-6-yl)methyl]thiophene-3-sulfonamide], the melting point fell in the range of 128 to 131 °C. In series [1] (setting [3]), the change in vivo at 500 µM is -27%. In addition, the change in vivo at 500 µM in series [1] (setting [4]) is -18.1%. Also, the change in vivo at 500 µM in series [1] (setting [5]) is -14.7%. Further, the change in vivo at 500 µM in series [1] (setting [6]) was -11.6%. Besides, in series [1] (setting [7]), the change in vivo at 500 µM is -7.5%. In series [1] (setting [8]), the change in vivo at 500 µM was -15.3%. Besides, the change in vivo at 500 µM in series [2] (setting [9]) was -16.6%. Besides, the change in vivo at 500 µM in series [2] (setting [10]) is -15.1%. Further, the change in vivo at 500 µM in series [2] (setting [11]) was -12.9%. In addition, the change in vivo at 500 µM in series [2] (setting [12]) is -11.4%. In series [2] (setting [13]), the change in vivo at 500 µM is -9.2%. Besides, the change in vivo at 500 µM in series [2] (setting [14]) was -9.1%. Besides, the change in vivo at 500 µM in series [2] (setting [15]) is -11.8%.

On to `CCCN1C(=O)CCc2cc(CNS(=O)(=O)c3ccc(Br)cc3)ccc21` [Compound 3.002, 4-bromo-N-[(2-oxo-1-propyl-3,4-dihydroquinolin-6-yl)methyl]benzenesulfonamide], for which the melting point is 143 to 145 °C. In addition, the change in vivo at 500 µM in series [1] (setting [3]) is -22.5%. Besides, the change in vivo at 500 µM in series [1] (setting [4]) is -13.7%. In series [1] (setting [5]), the change in vivo at 500 µM is -9.4%. The change in vivo at 500 µM in series [1] (setting [6]) is -6.7%. Besides, the change in vivo at 500 µM in series [1] (setting [7]) was -4.7%. The change in vivo at 500 µM in series [1] (setting [8]) is -11.4%. In addition, the change in vivo at 500 µM in series [2] (setting [9]) was -16.3%. For the same compound, in series [2] (setting [10]), the change in vivo at 500 µM was -12.2%. Moreover, the change in vivo at 500 µM in series [2] (setting [11]) was -13.4%. Also, the change in vivo at 500 µM in series [2] (setting [12]) was -10.5%. In series [2] (setting [13]), the change in vivo at 500 µM is -9.5%. Also, in series [2] (setting [14]), the change in vivo at 500 µM was -7%. In addition, the change in vivo at 500 µM in series [2] (setting [15]) was -10.9%.

For the compound `CCCN1C(=O)CCc2cc(CNS(=O)(=O)c3c(F)cccc3F)ccc21` [Compound 3.005, 2,6-difluoro-N-[(2-oxo-1-propyl-3,4-dihydroquinolin-6-yl)methyl]benzenesulfonamide], the melting point lay in the range of 182 to 183 °C. For the same compound, the change in vivo at 500 µM in series [1] (setting [3]) is -37.5%. Further, in series [1] (setting [4]), the change in vivo at 500 µM is -24.9%. Also, the change in vivo at 500 µM in series [1] (setting [5]) is -21.9%. The change in vivo at 500 µM in series [1] (setting [6]) was -12.9%. Moreover, the change in vivo at 500 µM in series [1] (setting [7]) was -12%. The change in vivo at 500 µM in series [1] (setting [8]) was -21.9%. Moreover, the change in vivo at 500 µM in series [2] (setting [9]) is -16.2%. For the same compound, the change in vivo at 500 µM in series [2] (setting [10]) is -10.5%. Also, in series [2] (setting [11]), the change in vivo at 500 µM was -9.2%. In series [2] (setting [12]), the change in vivo at 500 µM was -7.9%. Besides, the change in vivo at 500 µM in series [2] (setting [13]) is -5.4%. Besides, the change in vivo at 500 µM in series [2] (setting [14]) was -5.3%. Besides, the change in vivo at 500 µM in series [2] (setting [15]) was -8.2%.

`CCCN1C(=O)CCc2cc(CNS(=O)(=O)c3ccc(F)cc3F)ccc21` [Compound 3.006, 2,4-difluoro-N-[(2-oxo-1-propyl-3,4-dihydroquinolin-6-yl)methyl]benzenesulfonamide] returned a melting point of 141 to 144 °C. The change in vivo at 500 µM in series [1] (setting [3]) was -36.5%. In addition, in series [1] (setting [4]), the change in vivo at 500 µM is -28.3%. Moreover, in series [1] (setting [5]), the change in vivo at 500 µM is -24.2%. Besides, the change in vivo at 500 µM in series [1] (setting [6]) is -17.8%. The change in vivo at 500 µM in series [1] (setting [7]) was -14.9%. The change in vivo at 500 µM in series [1] (setting [8]) is -24.5%. Also, the change in vivo at 500 µM in series [2] (setting [9]) is -18%. The change in vivo at 500 µM in series [2] (setting [10]) was -14.1%. Besides, the change in vivo at 500 µM in series [2] (setting [11]) was -12.6%. Moreover, in series [2] (setting [12]), the change in vivo at 500 µM was -10.2%. Moreover, in series [2] (setting [13]), the change in vivo at 500 µM was -6.6%. The change in vivo at 500 µM in series [2] (setting [14]) is -5.7%. The change in vivo at 500 µM in series [2] (setting [15]) was -10.3%.

In turn, `CCCN1C(=O)CCc2cc(CNS(=O)(=O)/C=C/c3cccc(Cl)c3)ccc21` [Compound 3.069, (E)-2-(3-chlorophenyl)-N-[(2-oxo-1-propyl-3,4-dihydroquinolin-6-yl)methyl]ethenesulfonamide] yielded a melting point of 129 to 133 °C. Also, the change in vivo at 500 µM in series [2] (setting [9]) is -8.1%. Further, the change in vivo at 500 µM in series [2] (setting [10]) is -4.1%. Besides, in series [2] (setting [11]), the change in vivo at 500 µM is -6.1%. Also, the change in vivo at 500 µM in series [2] (setting [12]) was -5.5%. Besides, in series [2] (setting [13]), the change in vivo at 500 µM was -4.8%. In addition, the change in vivo at 500 µM in series [2] (setting [14]) was -3.8%. Besides, in series [2] (setting [15]), the change in vivo at 500 µM is -5%.
